Marks after values point to notes of the source that are not given here.
tested on: Puccinia recondita f sp. tritici; test: Test A: wheat leaf rust, preventive spray on wheat seedlings, visual disease rating; type: in vivo; conditions: 50 ppm (*), 100 = 100% disease control, 0 = no control
Source text: General protocol for preparing test suspensions for Tests A-D: the test compounds were first dissolved in acetone in an amount equal to 3% of the final volume and then suspended at the desired concentration (in ppm) in acetone and purified water (50/50 mix by volume) containing 250 ppm of the surfactant Trem® 014 (polyhydric alcohol esters). The resulting test suspensions were then used in Tests A-D. The test suspension was sprayed to the point of run-off on wheat seedlings. The following day the seedlings were inoculated with a spore suspension of Puccinia recondita f sp. tritici (the causal agent of wheat leaf rust) and incubated in a saturated atmosphere at 20° C. for 24 h, and then moved to a growth chamber at 20° C. for 7 days, after which time visual disease ratings were made. In the Table, a rating of 100 indicates 100% disease control and a rating of 0 indicates no disease control (relative to the controls). A dash (−) indicates no test results. All results are for 250 ppm except where followed by an “*” which indicates 50 ppm, and where followed by an “**” which indicates 10 ppm

| SMILES | pest or weed control at 50 ppm [%] | Test A disease control rating |
| --- | --- | --- |
| Cc1nn(C)c(C(C)C)c1C(O)c1ccc(F)cc1Cl (stereo not drawn) [Compound 1, α-(2-chloro-4-fluorophenyl)-1,3-dimethyl-5-(1-methylethyl)-1H-pyrazole-4-methanol] | 98 |  |
| Cc1nn(C)c(C(C)C)c1C(O)c1ccc(F)cc1F (stereo not drawn) [Compound 2] |  | 57* % |
| C=C(C)Cc1c(C(O)c2ccc(F)cc2Cl)c(C)nn1C (stereo not drawn) [Compound 5] |  | 68* % |
| CCC(C)c1c(Nc2c(F)cc(F)cc2F)c(C)nn1C (stereo not drawn) [Compound 15] |  | 0* % |
| CCC(C)c1c(Nc2c(F)cc([N+](=O)[O-])cc2F)c(C)nn1C (stereo not drawn) [Compound 16] |  | 0* % |
| CCC(C)c1c(Nc2c(F)cc(C#N)cc2F)c(C)nn1C (stereo not drawn) [Compound 17] |  | 0* % |
| CCC(C)c1c(Nc2ccc(F)cc2Cl)c(C)nn1C (stereo not drawn) [Compound 18] |  | 0* % |
| Cc1nn(C)c(C2CCCC2)c1C(O)c1ccc(F)cc1Cl (stereo not drawn) [Compound 19] |  | 89* % |
| CCC(C)c1c(Nc2ccc(F)c(F)c2)c(C)nn1C (stereo not drawn) [Compound 20] |  | 0* % |
| CCC(C)c1c(C(O)c2c(F)cccc2F)c(C)nn1C (stereo not drawn) [Compound 25] |  | 74* % |
| Cc1nn(C)c(C2CCCC2)c1C(O)c1ccc(F)cc1F (stereo not drawn) [Compound 26] |  | 74* % |
| CC=C(C)c1c(C(O)c2ccc(F)cc2Cl)c(Br)nn1C (stereo not drawn) [Compound 27] |  | 99* % |
| Cn1nc(Br)c(C(O)c2ccc(F)cc2Cl)c1C1=CCCCC1 (stereo not drawn) [Compound 28] |  | 80* % |

same assay, conditions: 250 ppm, 100 = 100% disease control, 0 = no control

| SMILES | Test A disease control rating [%] | pest or weed control at 250 ppm [%] |
| --- | --- | --- |
| CC=C(C)c1c(Oc2ccc(F)cc2Cl)c(C)nn1C [Compound 4] | 0 |  |
| CCC(C)c1c(Oc2ccc(F)cc2Cl)c(C)nn1C (stereo not drawn) [Compound 7] | 0 |  |
| Cc1nn(C)c(C2=CCCCC2)c1Oc1ccc(F)cc1Cl [Compound 13, 4-(2-chloro-4-fluorophenoxy)-5-(1-cyclohexen-1-yl)-1,3-dimethyl-1H-pyrazole] |  | 9 |

tested on: Septoria tritici; test: Test B: wheat leaf blotch, preventive spray on wheat seedlings, visual disease rating; type: in vivo; conditions: 50 ppm (*), 100 = 100% disease control, 0 = no control
Source text: General protocol for preparing test suspensions for Tests A-D: the test compounds were first dissolved in acetone in an amount equal to 3% of the final volume and then suspended at the desired concentration (in ppm) in acetone and purified water (50/50 mix by volume) containing 250 ppm of the surfactant Trem® 014 (polyhydric alcohol esters). The resulting test suspensions were then used in Tests A-D. The test suspension was sprayed to the point of run-off on wheat seedlings. The following day the seedlings were inoculated with a spore suspension of Septoria tritici (the causal agent of wheat leaf blotch) and incubated in a saturated atmosphere at 24° C. for 48 h, and then moved to a growth chamber at 20° C. for 19 days, after which time visual disease ratings were made. In the Table, a rating of 100 indicates 100% disease control and a rating of 0 indicates no disease control (relative to the controls). A dash (−) indicates no test results. All results are for 250 ppm except where followed by an “*” which indicates 50 ppm, and where followed by an “**” which indicates 10 ppm

| SMILES | Test B disease control rating |
| --- | --- |
| Cc1nn(C)c(C(C)C)c1C(O)c1ccc(F)cc1F (stereo not drawn) [Compound 2] | 99* % |
| C=C(C)Cc1c(C(O)c2ccc(F)cc2Cl)c(C)nn1C (stereo not drawn) [Compound 5] | 99* % |
| CCC(C)c1c(Nc2c(F)cc(F)cc2F)c(C)nn1C (stereo not drawn) [Compound 15] | 1* % |
| CCC(C)c1c(Nc2c(F)cc([N+](=O)[O-])cc2F)c(C)nn1C (stereo not drawn) [Compound 16] | 22* % |
| CCC(C)c1c(Nc2c(F)cc(C#N)cc2F)c(C)nn1C (stereo not drawn) [Compound 17] | 35* % |
| CCC(C)c1c(Nc2ccc(F)cc2Cl)c(C)nn1C (stereo not drawn) [Compound 18] | 0* % |
| Cc1nn(C)c(C2CCCC2)c1C(O)c1ccc(F)cc1Cl (stereo not drawn) [Compound 19] | 100* % |
| CCC(C)c1c(Nc2ccc(F)c(F)c2)c(C)nn1C (stereo not drawn) [Compound 20] | 0* % |
| CCC(C)c1c(C(O)c2c(F)cccc2F)c(C)nn1C (stereo not drawn) [Compound 25] | 63* % |
| Cc1nn(C)c(C2CCCC2)c1C(O)c1ccc(F)cc1F (stereo not drawn) [Compound 26] | 97* % |
| CC=C(C)c1c(C(O)c2ccc(F)cc2Cl)c(Br)nn1C (stereo not drawn) [Compound 27] | 100* % |
| Cn1nc(Br)c(C(O)c2ccc(F)cc2Cl)c1C1=CCCCC1 (stereo not drawn) [Compound 28] | 87* % |

same assay, conditions: 250 ppm, 100 = 100% disease control, 0 = no control

| SMILES | Test B disease control rating [%] |
| --- | --- |
| CC=C(C)c1c(Oc2ccc(F)cc2Cl)c(C)nn1C [Compound 4] | 0 |
| CCC(C)c1c(Oc2ccc(F)cc2Cl)c(C)nn1C (stereo not drawn) [Compound 7] | 0 |

same assay, conditions: Zymoseptoria tritici, 50 ppm (*), 100 = 100% disease control, 0 = no control

| SMILES | pest or weed control at 50 ppm [%] |
| --- | --- |
| Cc1nn(C)c(C(C)C)c1C(O)c1ccc(F)cc1Cl (stereo not drawn) [Compound 1, α-(2-chloro-4-fluorophenyl)-1,3-dimethyl-5-(1-methylethyl)-1H-pyrazole-4-methanol] | 100 |

same assay, conditions: Zymoseptoria tritici, 250 ppm, 100 = 100% disease control, 0 = no control

| SMILES | pest or weed control at 250 ppm [%] |
| --- | --- |
| Cc1nn(C)c(C2=CCCCC2)c1Oc1ccc(F)cc1Cl [Compound 13, 4-(2-chloro-4-fluorophenoxy)-5-(1-cyclohexen-1-yl)-1,3-dimethyl-1H-pyrazole] | 0 |

tested on: Botrytis cinerea; test: Test C: tomato Botrytis, preventive spray on tomato seedlings, visual disease rating; type: in vivo; conditions: 50 ppm (*), 100 = 100% disease control, 0 = no control
Source text: General protocol for preparing test suspensions for Tests A-D: the test compounds were first dissolved in acetone in an amount equal to 3% of the final volume and then suspended at the desired concentration (in ppm) in acetone and purified water (50/50 mix by volume) containing 250 ppm of the surfactant Trem® 014 (polyhydric alcohol esters). The resulting test suspensions were then used in Tests A-D. The test suspension was sprayed to the point of run-off on tomato seedlings. The following day the seedlings were inoculated with a spore suspension of Botrytis cinerea (the causal agent of tomato Botrytis) and incubated in a saturated atmosphere at 20° C. for 48 h, and then moved to a growth chamber at 24° C. for 3 days, after which time visual disease ratings were made. In the Table, a rating of 100 indicates 100% disease control and a rating of 0 indicates no disease control (relative to the controls). A dash (−) indicates no test results. All results are for 250 ppm except where followed by an “*” which indicates 50 ppm, and where followed by an “**” which indicates 10 ppm

| SMILES | Test C disease control rating |
| --- | --- |
| Cc1nn(C)c(C(C)C)c1C(O)c1ccc(F)cc1F (stereo not drawn) [Compound 2] | 0* % |
| C=C(C)Cc1c(C(O)c2ccc(F)cc2Cl)c(C)nn1C (stereo not drawn) [Compound 5] | 0* % |
| Cc1nn(C)c(C2CCCC2)c1C(O)c1ccc(F)cc1Cl (stereo not drawn) [Compound 19] | 0* % |
| CCC(C)c1c(C(O)c2c(F)cccc2F)c(C)nn1C (stereo not drawn) [Compound 25] | 17* % |
| Cc1nn(C)c(C2CCCC2)c1C(O)c1ccc(F)cc1F (stereo not drawn) [Compound 26] | 26* % |
| CC=C(C)c1c(C(O)c2ccc(F)cc2Cl)c(Br)nn1C (stereo not drawn) [Compound 27] | 58* % |
| Cn1nc(Br)c(C(O)c2ccc(F)cc2Cl)c1C1=CCCCC1 (stereo not drawn) [Compound 28] | 0* % |

same assay, conditions: 250 ppm, 100 = 100% disease control, 0 = no control

| SMILES | Test C disease control rating [%] |
| --- | --- |
| CC=C(C)c1c(Oc2ccc(F)cc2Cl)c(C)nn1C [Compound 4] | 39 |
| CCC(C)c1c(Oc2ccc(F)cc2Cl)c(C)nn1C (stereo not drawn) [Compound 7] | 0 |

same assay, conditions: Botrytis cinerea, 50 ppm (*), 100 = 100% disease control, 0 = no control

| SMILES | pest or weed control at 50 ppm [%] |
| --- | --- |
| Cc1nn(C)c(C(C)C)c1C(O)c1ccc(F)cc1Cl (stereo not drawn) [Compound 1, α-(2-chloro-4-fluorophenyl)-1,3-dimethyl-5-(1-methylethyl)-1H-pyrazole-4-methanol] | 33 |

same assay, conditions: Botrytis cinerea, 250 ppm, 100 = 100% disease control, 0 = no control

| SMILES | pest or weed control at 250 ppm [%] |
| --- | --- |
| Cc1nn(C)c(C2=CCCCC2)c1Oc1ccc(F)cc1Cl [Compound 13, 4-(2-chloro-4-fluorophenoxy)-5-(1-cyclohexen-1-yl)-1,3-dimethyl-1H-pyrazole] | 0 |

tested on: Blumeria graminis f sp. tritici; test: Test D: wheat powdery mildew, preventive spray on wheat seedlings, visual disease rating; type: in vivo; conditions: 50 ppm (*), 100 = 100% disease control, 0 = no control
Source text: General protocol for preparing test suspensions for Tests A-D: the test compounds were first dissolved in acetone in an amount equal to 3% of the final volume and then suspended at the desired concentration (in ppm) in acetone and purified water (50/50 mix by volume) containing 250 ppm of the surfactant Trem® 014 (polyhydric alcohol esters). The resulting test suspensions were then used in Tests A-D. The test suspension was sprayed to the point of run-off on wheat seedlings. The following day the seedlings were inoculated with a spore dust of Blumeria graminis f sp. tritici, (also known as Erysiphe graminis f. sp. tritici, the causal agent of wheat powdery mildew) and incubated in a growth chamber at 20° C. for 8 days, after which time visual disease ratings were made. In the Table, a rating of 100 indicates 100% disease control and a rating of 0 indicates no disease control (relative to the controls). A dash (−) indicates no test results. All results are for 250 ppm except where followed by an “*” which indicates 50 ppm, and where followed by an “**” which indicates 10 ppm

| SMILES | Test D disease control rating |
| --- | --- |
| Cc1nn(C)c(C(C)C)c1C(O)c1ccc(F)cc1F (stereo not drawn) [Compound 2] | 99* % |
| C=C(C)Cc1c(C(O)c2ccc(F)cc2Cl)c(C)nn1C (stereo not drawn) [Compound 5] | 76* % |
| CCC(C)c1c(Nc2c(F)cc(F)cc2F)c(C)nn1C (stereo not drawn) [Compound 15] | 0* % |
| CCC(C)c1c(Nc2c(F)cc([N+](=O)[O-])cc2F)c(C)nn1C (stereo not drawn) [Compound 16] | 0* % |
| CCC(C)c1c(Nc2c(F)cc(C#N)cc2F)c(C)nn1C (stereo not drawn) [Compound 17] | 69* % |
| CCC(C)c1c(Nc2ccc(F)cc2Cl)c(C)nn1C (stereo not drawn) [Compound 18] | 0* % |
| Cc1nn(C)c(C2CCCC2)c1C(O)c1ccc(F)cc1Cl (stereo not drawn) [Compound 19] | 89* % |
| CCC(C)c1c(Nc2ccc(F)c(F)c2)c(C)nn1C (stereo not drawn) [Compound 20] | 26* % |
| CCC(C)c1c(C(O)c2c(F)cccc2F)c(C)nn1C (stereo not drawn) [Compound 25] | 86* % |
| Cc1nn(C)c(C2CCCC2)c1C(O)c1ccc(F)cc1F (stereo not drawn) [Compound 26] | 90* % |
| Cn1nc(Br)c(C(O)c2ccc(F)cc2Cl)c1C1=CCCCC1 (stereo not drawn) [Compound 28] | 64* % |

same assay, conditions: 250 ppm, 100 = 100% disease control, 0 = no control

| SMILES | Test D disease control rating [%] |
| --- | --- |
| CC=C(C)c1c(Oc2ccc(F)cc2Cl)c(C)nn1C [Compound 4] | 56 |
| CCC(C)c1c(Oc2ccc(F)cc2Cl)c(C)nn1C (stereo not drawn) [Compound 7] | 0 |
| CC=C(C)c1c(C(O)c2ccc(F)cc2Cl)c(Br)nn1C (stereo not drawn) [Compound 27] | 86 |

same assay, conditions: Blumeria graminis, 50 ppm (*), 100 = 100% disease control, 0 = no control

| SMILES | pest or weed control at 50 ppm [%] |
| --- | --- |
| Cc1nn(C)c(C(C)C)c1C(O)c1ccc(F)cc1Cl (stereo not drawn) [Compound 1, α-(2-chloro-4-fluorophenyl)-1,3-dimethyl-5-(1-methylethyl)-1H-pyrazole-4-methanol] | 97 |

same assay, conditions: Blumeria graminis, 250 ppm, 100 = 100% disease control, 0 = no control

| SMILES | pest or weed control at 250 ppm [%] |
| --- | --- |
| Cc1nn(C)c(C2=CCCCC2)c1Oc1ccc(F)cc1Cl [Compound 13, 4-(2-chloro-4-fluorophenoxy)-5-(1-cyclohexen-1-yl)-1,3-dimethyl-1H-pyrazole] | 67 |

tested on: not given; test: not given; conditions: not given

| SMILES | melting point [°C] |
| --- | --- |
| Cc1nn(C)c(C(C)C)c1C(O)c1ccc(F)cc1Cl (stereo not drawn) [Compound 1, α-(2-chloro-4-fluorophenyl)-1,3-dimethyl-5-(1-methylethyl)-1H-pyrazole-4-methanol] | 152 to 154 |

— patent US20170037014A1, “FUNGICIDAL PYRAZOLES” (E. I. DU PONT DE NEMOURS AND COMPANY, priority 2014, published 2017)
